Experimental findings from EP4741383A1, “COMPOUND AND USE THEREOF AS ANTI-CANCER DRUG” (Tyligand Bioscience (Shanghai) Limited, priority 2023, dated 2025) are described below.

Assay [1] addresses T1, SHP2 enzyme (catalytic domain, amino acid sequence 224-528) (Homo sapiens, UniProt Q06124).
T1 construct: purchased GenScript
T1 sequence (Q06124 224-528): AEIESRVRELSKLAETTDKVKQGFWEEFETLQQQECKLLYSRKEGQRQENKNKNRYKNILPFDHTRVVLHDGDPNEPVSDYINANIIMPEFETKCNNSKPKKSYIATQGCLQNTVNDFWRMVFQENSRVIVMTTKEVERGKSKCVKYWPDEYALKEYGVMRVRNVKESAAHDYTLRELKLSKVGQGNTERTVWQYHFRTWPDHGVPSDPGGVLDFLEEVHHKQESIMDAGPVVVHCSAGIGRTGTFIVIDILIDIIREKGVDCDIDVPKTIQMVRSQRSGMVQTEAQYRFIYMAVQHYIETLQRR
The assay can be described thus: SHP2 enzyme inhibition assay (DiFMUP substrate, fluorescence). The format is biochemical. The following applies: for IC50: SHP2 catalytic domain, DiFMUP substrate, 30 min pre-incubation, read-out: S HP2 I C50; for SHP2 IC50 times lower than control compound 11a-1: relative to 11a-1, IC50 = 0.108 µM. Put shortly:
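SHP2 catalytic domain (aa 224-528) preincubated 30 min at room temperature with compounds (10-point 3-fold series) in HEPES pH 7.2 buffer with NaCl, EDTA, DTT, BSA, Brij35. DiFMUP from 50 µM working solution added, 5 min reaction; fluorescence 340/450 nm; IC50 from nonlinear dose-response fit.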

In the next assay the test system is KYSE520. The assay can be described thus: CellTiter-Glo cell proliferation inhibition, KYSE520. It is filed as cell-based, human. The following applies: for IC50: Homo sapiens, KYSE-520, KYSE520 cells, 120 hours, CellTiter-Glo. The source says:
In this study, the CellTiter-Glo® Luminescent Cell Viability Assay kit from Promega was used to evaluate the inhibitory effects of the disclosed compounds on the proliferation of cell lines KYSE520 (a human esophageal squamous cell carcinoma cell line dependent on SHP2 for growth), MeWo (a human malignant melanoma cell line), and MV4-11 (an RTK-mutant human acute monocytic leukemia cell line).
KYSE520 cells (Nanjing Kebaio Biotechnology Co., Ltd., Catalog #CBP60658) were thawed by rapidly shaking the cryovial in a 37 °C water bath to thaw within 1 minute. The thawed cell suspension was mixed homogeneously with RPMI 1640 medium (HyClone, Catalog #SH30027.01) containing 10% FBS (ExCell, Catalog #FND500), centrifuged at 1000 rpm for 5 minutes, and the supernatant was discarded. The cell pellet was resuspended in 5 mL of complete culture medium (RPMI 1640 medium containing 10% FBS) and placed in a cell culture flask with 25 cm^2 of bottom area, then cultured in a cell culture incubator at 37 °C, 95% humidity, and 5% CO2. Cell passaging was performed when the cell confluence reached approximately 80%. During cell passaging, the old culture medium was discarded, the cells were washed once with DPBS (Thermo Fisher, Catalog #14190-144), and 1 mL of trypsin (Thermo Fisher, Catalog #25200072) was added to digest the cells. When the cells dispersed into single cells and detached from the bottom of the culture flask, 3 mL of fresh complete culture medium was added to stop the digestion. After gently pipetting the cell suspension, 1/5 of the cell suspension was retained, 5 mL of fresh complete culture medium was added, and after mixing, the cells were placed in a cell culture flask for further culture. Cell plating was performed when the cell confluence again reached approximately 80%. During cell plating, following the cell passaging method, 1/5 of the cell suspension was retained for continued culture, and the remaining 4/5 of the cell suspension was placed in a 15 mL centrifuge tube. Cell viability was determined using the trypan blue exclusion method to ensure that cell viability was above 90%. A cell suspension with a density of 2.22 × 10^4 cells/mL was prepared using complete culture medium, and 135 µL of the cell suspension was added to a 96-well transparent flat-bottom black-walled cell culture plate (Greiner, Catalog #655090), resulting in a cell density of 3000 viable cells per well. A control group containing only complete culture medium without cells and compounds (i.e., culture medium control) and a control group containing cells but no compound (i.e., cell control) were set up. The cell plates were incubated overnight in a cell culture incubator. First, a 10 mM stock solution of the compound (Example compound and positive control compound 11a-1) in DMSO (Damas-beta, catalog #75927R) was serially diluted 3-fold to the 9th concentration, and a 10th concentration containing only DMSO (without compound) was also prepared as a control. Then, the DMSO solutions containing different concentrations of the compound were diluted 100-fold with complete culture medium, resulting in a 1% DMSO concentration in each solution. Finally, 15 µL of each solution was added to the corresponding wells of the cell culture plate, resulting in a starting compound concentration of 10 µM, with a 3-fold dilution between adjacent concentrations, and a final DMSO concentration of 0.1% in the cell culture plate. The cell plates were then incubated in the cell culture incubator for another 120 hours.
For endpoint detection, CellTiter-Glo reagent (Promega, catalog number #G7573, CellTiter-Glo® Luminescent Cell Viability Assay Kit) was melt and each cell plate was moved to room temperature for equilibration for 30 minutes. 75 µL (KYSE520 cells) or 50 µL (MeWo cells and MV 4-11 cells) of CellTiter-Glo was added to each well of the corresponding cell plate. The plates were shaken on a track-mounted shaker for 2 minutes to fully lyse the cells. […]

The structures appear in SMILES notation.

Take `O=C(Nc1ccc(-c2ccsc2)cc1)C(=O)Nc1ccc(-c2sc3cc(F)c(-c4nnn[nH]4)cc3c2C2CCC2)cc1` [Example 133]: the values for the IC50 (in assay [1]; in the assay on KYSE520) were 0.069 µM and 0.688 µM, respectively.
The like results for `CC1(O)CCC2(CCN(c3ccc(NC(=O)C(=O)Nc4ccc(-c5cc6cc(F)c(-c7nnn[nH]7)cc6n5C5CCC5)cc4)cc3)CC2)CC1` [Example 110] were, in that order, 0.077 µM and 0.109 µM.
In the case of `CC1(CO)CCN(c2ccc(NC(=O)C(=O)Nc3ccc(-c4cc5cc(F)c(-c6nnn[nH]6)cc5n4C4CCC4)cc3)cc2)CC1` [Example 40], the IC50 amounted to 0.06 µM in assay [1] and 0.168 µM in the assay with KYSE520.
In the case of `CC1(O)CCC2(CC1)CN(c1ccc(NC(=O)C(=O)Nc3ccc(-c4cc5cc(F)c(-c6nnn[nH]6)cc5n4C4CCC4)cc3)cc1)C2` [Example 83], the IC50 in assay [1] was 0.058 µM; in the assay with KYSE520 it was 0.163 µM.
`O=C(Nc1ccc(-c2cc3cc(F)c(-c4nnn[nH]4)cc3n2C2CCC2)cc1)C(=O)Nc1ccc(N2CCC(CCO)C2)cc1` (stereo not shown) [Example 14]: the IC50 in assay [1] worked out at 0.045 µM; in the assay on KYSE520 it was 0.113 µM.
For the molecule `O=C(Nc1ccc(-c2cc3cc(F)c(-c4nnn[nH]4)cc3n2C2CCC2)cc1)C(=O)Nc1ccc(N2CCC(CCO)CC2)cc1` [Example 25], the IC50 was 0.059 µM in assay [1] and 0.056 µM in the assay on KYSE520.
As for `O=C(Nc1ccc(-c2ccsc2)cc1)C(=O)Nc1ccc(-c2cc3cc(F)c(-c4nnn[nH]4)cc3n2C2CCC2)cc1` [Example 4], in assay [1], the IC50 stood at 0.029 µM and the “SHP2 IC50 times lower than control compound 11a-1” value is recorded as 3-4 times.
Take `CC1(n2c(-c3ccc(NC(=O)C(=O)Nc4ccc(N5CCC6(CCOC6)CC5)cc4)cc3)cc3cc(F)c(-c4nnn[nH]4)cc32)CCC1` [Example 68]: the IC50 in assay [1] is 0.048 µM; with KYSE520, 0.057 µM.
For `O=C(Nc1ccc(-c2cc3cc(F)c(-c4nnn[nH]4)cc3n2C2CCC2)cc1)C(=O)Nc1ccc(N2CCOCC2)cc1` [Example 47], the IC50 in assay [1] was 0.063 µM.
For `O=C(Nc1ccc(-c2cc3cc(F)c(-c4nnn[nH]4)cc3n2C2CCC2)cc1)C(=O)Nc1ccc(N2CCC3(CCOC3)C2)cc1` (stereo not shown) [Example 61], the values for the IC50 (in assay [1]; with KYSE520) were 0.041 µM and 0.126 µM, respectively.
The like results for `CC1(n2c(-c3ccc(NC(=O)C(=O)Nc4ccc(N5CCC6(CCOC6)CC5)cc4)cc3)cc3cc(F)c(-c4nnn[nH]4)cc32)CC1` [Example 70] were, in that order, 0.05 µM and 0.085 µM.
Turning to `O=C(Nc1ccc(-c2cc3cc(F)c(-c4nnn[nH]4)cc3n2C2CCC2)cc1)C(=O)Nc1ccc(N2CCC3(CC(O)C3)C2)cc1` (stereo not shown) [Example 89], the IC50 in assay [1] was found to be 0.157 µM; in the assay on KYSE520, 0.062 µM.
As to `CC1(n2c(-c3ccc(NC(=O)C(=O)Nc4ccc(N5CCC6(CC5)CC(CO)C6)cc4)cc3)cc3cc(F)c(-c4nnn[nH]4)cc32)CCC1` [Example 97], the IC50 in assay [1] is 0.105 µM; with KYSE520, 0.095 µM.
As to `O=C(Nc1ccc(-c2cc3cc(F)c(-c4nnn[nH]4)cc3n2C2CCC2)cc1)C(=O)Nc1ccc(N2CCC3(CC2)CC(CO)C3)cc1` [Example 96], the IC50 in assay [1] was determined as 0.058 µM; in the assay with KYSE520, 0.059 µM.
For `CC1(n2c(-c3ccc(NC(=O)C(=O)Nc4ccc(-c5cnn(C6CCOCC6)c5)cc4)cc3)cc3cc(F)c(-c4nnn[nH]4)cc32)CC1` [Example 7], the IC50 in assay [1] worked out at 0.049 µM; with KYSE520 it was 0.071 µM.
Turning to `O=C(Nc1ccc(-c2ccsc2)cc1)C(=O)Nc1ccc(-c2cc3ccc(-c4nnn[nH]4)cc3n2C2CCC2)cc1` [Example 122], the IC50 in assay [1] was 0.066 µM; in the assay on KYSE520, 4.36 µM.
`O=C(Nc1ccc(-c2ccsc2)cc1)C(=O)Nc1ccc(-c2cc3cc(F)c(-c4nnn[nH]4)nc3n2C2CCC2)cc1` [Example 132]: the values for the IC50 (in assay [1]; in the assay with KYSE520) were 0.027 µM and 1.1 µM, respectively.
For the molecule `O=C(Nc1ccc(-c2cc3cc(F)c(-c4nnn[nH]4)cc3n2C2CCC2)cc1)C(=O)Nc1ccc(N2CCC(CO)CC2)cc1` [Example 23], the IC50 in assay [1] was 0.102 µM.
For the molecule `COC1CC(n2c(-c3ccc(NC(=O)C(=O)Nc4ccc(N5CCC6(CCC(O)C6)CC5)cc4)cc3)cc3cc(F)c(-c4nnn[nH]4)cc32)C1` (stereo not shown) [Example 103], the IC50 stood at 0.141 µM in assay [1] and 0.042 µM in the assay on KYSE520.
The like results for `O=C(Nc1ccc(-c2cc3cc(F)c(-c4nnn[nH]4)cc3n2C2CCC2)cc1)C(=O)Nc1ccc(N2CC3(CCCOC3)C2)cc1` [Example 55] were, in that order, 0.045 µM and 0.108 µM.
The like results for `CC1(O)CC2CN(c3ccc(NC(=O)C(=O)Nc4ccc(-c5cc6cc(F)c(-c7nnn[nH]7)cc6n5C5(C)CCC5)cc4)cc3)CC2C1` (stereo not shown) [Example 118] were, in that order, 0.045 µM and 0.116 µM.
As to `Cn1cc(-c2ccc(NC(=O)C(=O)Nc3ccc(-c4cc5cc(F)c(-c6noc(=O)[nH]6)cc5n4C4CCC4)cc3)cc2)cn1` [Example 123], the IC50 in assay [1] is 0.141 µM; in the assay with KYSE520, 0.243 µM.
The like results for `CC1(O)CCC2(CCN(c3ccc(NC(=O)C(=O)Nc4ccc(-c5cc6cc(F)c(-c7nnn[nH]7)cc6n5C5(C)CCC5)cc4)cc3)CC2)CC1` [Example 111] were, in that order, 0.094 µM and 0.105 µM.
On to `O=C(Nc1ccc(-c2cc3cc(F)c(-c4nnn[nH]4)cc3n2C2CCC2)cc1)C(=O)Nc1ccc(N2CCC3(CCOC3)CC2)cc1` [Example 67], for which the IC50 is 0.034 µM in assay [1] and 0.086 µM in the assay on KYSE520. The “SHP2 IC50 times lower than control compound 11a-1” value in assay [1] is reported as 3-4 times.
Turning to `O=C(Nc1ccc(-c2ccsc2)cc1)C(=O)Nc1ccc(-c2cc3cnc(-c4nnn[nH]4)nc3n2C2CCC2)cc1` [Example 131], in assay [1], the IC50 stood at 0.026 µM.
`O=C(Nc1ccc(-c2cc3cc(F)c(-c4nnn[nH]4)cc3n2C2CCC2)cc1)C(=O)Nc1ccc(N2CCC3(CCC(O)C3)C2)cc1` (stereo not shown) [Example 92]: the IC50 in assay [1] stood at 0.051 µM; in the assay on KYSE520, 0.13 µM.
On to `O=C(Nc1ccc(-c2cc3cc(F)c(-c4nnn[nH]4)cc3n2C2CCC2)cc1)C(=O)Nc1ccc(N2CCC(C3COC3)CC2)cc1` [Example 20], for which, in assay [1], the IC50 stood at 0.027 µM and the “SHP2 IC50 times lower than control compound 11a-1” value is given as 3-4 times. Also, the IC50 in the assay with KYSE520 is 0.036 µM. The “IC50 against KYSE-520 cells, fold lower than 11a-1” value in the assay with KYSE520 (relative to 11a-1 (1.23 µM)) is 34 fold.
Turning to `O=C(Nc1ccc(-c2cc3cc(F)c(-c4nnn[nH]4)cc3n2C2CCC2)cc1)C(=O)Nc1ccc(N2CCC(CO)C2)cc1` (stereo not shown) [Example 12], the IC50 in assay [1] came out at 0.048 µM; in the assay on KYSE520 it was 0.121 µM.
As to `CC1(O)CC2(CCN(c3ccc(NC(=O)C(=O)Nc4ccc(-c5cc6cc(F)c(-c7nnn[nH]7)cc6n5C5CCC5)cc4)cc3)CC2)C1` [Example 94], in assay [1], the IC50 turned out to be 0.031 µM and the “SHP2 IC50 times lower than control compound 11a-1” value is on record as 3-4 times. Further, the IC50 in the assay with KYSE520 was found to be 0.115 µM.
With `CC1(CO)CCN(c2ccc(NC(=O)C(=O)Nc3ccc(-c4cc5cc(F)c(-c6nnn[nH]6)cc5n4C4CCC4)cc3)cc2)C1` (stereo not shown) [Example 16], the results for the IC50 (in assay [1]; in the assay on KYSE520) were 0.048 µM and 0.151 µM, respectively.
